Test results taken from US20090226368A1, “Androgen-Receptor (AR) Ligands for Use in the Treatment and Diagnosis of AR-Related Pathologies” (priority 2005, published 2009).

Assays:
[1] = In-vivo blood stability in nude mice; settings: blood sampled after 0, 15, 30 and 35 minutes, phosphor-imagers
Procedure: In-vivo blood stability experiments were performed for the ^11C-labeled (R)-Compound 3. The compound was injected into nude mice. Blood was sampled from the mice after 0, 15, 30 and 35 minutes. The labeled compound was extracted and evaluated using phosphor-imagers.

[2] = Biodistribution in normal Lewis male rats, gamma-counter; assay type: in vivo; settings: tail vein
Procedure: The distribution of ^11C-labeled (R)-Compound 3 was measured in normal Lewis male rats which have been kept under SPF conditions. The labeled compound was injected through the tail vein of the rat. The rats were sacrificed 30, 60 and 90 minutes post injection, and prostate, blood, liver, muscle and kidney were removed and the activity in each organ was measured by gamma-counter (Tables 2A-D).

[3] = PET-CT scan of distribution, bladder activity; assay type: in vivo; settings: normal Lewis male rats, 40 minutes post injection
Procedure: In some clinically used radio-tracers, such of FDG, activity is observed in the bladder, and mask the prostate. […] The distribution of the compound was scanned by human PET-CT. Counter dye was injected to the animal 10 minutes prior to the injection of the labeled compound and the exact location of the bladder was detected by CT. In accordance with the biodistribution experiment, activity was measured in the metabolic organs.

[4] = 30 minutes post injection, Table 2A
[5] = 60 minutes post injection, Table 2B
[6] = 60 minutes post injection, Table 2B (Rats 1, 2)
[7] = 60 minutes post injection, Table 2C
[8] = 60 minutes post injection, Table 2C (Rats 3, 4)
[9] = 90 minutes post injection, Table 2D

CN([11CH3])C[C@@](C)(O)C(=O)Nc1ccc(F)c(C(F)(F)F)c1 [^11C-labeled (R)-Compound 3]
metabolites in blood in vivo [1]: No metabolites were evident | Biodistribution Blood, Av. [2, 4]: 0.76 % id/g | Biodistribution Blood, Rat 1 [2, 4]: 0.89 % id/g | Biodistribution Blood, Rat 2 [2, 4]: 0.63 % id/g | Biodistribution Kidney, Av. [2, 4]: 12.43 % id/g | Biodistribution Kidney, Rat 1 [2, 4]: 15.57 % id/g | Biodistribution Kidney, Rat 2 [2, 4]: 9.29 % id/g | Biodistribution Liver, Av. [2, 4]: 3.96 % id/g | Biodistribution Liver, Rat 1 [2, 4]: 4.26 % id/g | Biodistribution Liver, Rat 2 [2, 4]: 3.67 % id/g | Biodistribution Muscle, Av. [2, 4]: 1.14 % id/g | Biodistribution Muscle, Rat 1 [2, 4]: 1.07 % id/g | Biodistribution Muscle, Rat 2 [2, 4]: 1.21 % id/g | Biodistribution Prostate, Av. [2, 4]: 1.47 % id/g | Biodistribution Prostate, Rat 1 [2, 4]: 1.67 % id/g | Biodistribution Prostate, Rat 2 [2, 4]: 1.27 % id/g | Biodistribution Blood, Rat 1 [2, 5]: 0.54 % id/g | Biodistribution Blood, Rat 2 [2, 5]: 0.41 % id/g | Biodistribution Kidney, Rat 1 [2, 5]: 5.03 % id/g | Biodistribution Kidney, Rat 2 [2, 5]: 3.54 % id/g | Biodistribution Liver, Rat 1 [2, 5]: 8.79 % id/g | Biodistribution Liver, Rat 2 [2, 5]: 4.61 % id/g | Biodistribution Muscle, Rat 1 [2, 5]: 1.02 % id/g | Biodistribution Muscle, Rat 2 [2, 5]: 0.68 % id/g | Biodistribution Prostate, Rat 1 [2, 5]: 2.32 % id/g | Biodistribution Prostate, Rat 2 [2, 5]: 1.05 % id/g | Biodistribution Blood, Av. [2, 6]: 0.48 % id/g | Biodistribution Kidney, Av. [2, 6]: 4.29 % id/g | Biodistribution Liver, Av. [2, 6]: 6.70 % id/g | Biodistribution Muscle, Av. [2, 6]: 0.85 % id/g | Biodistribution Prostate, Av. [2, 6]: 1.69 % id/g | Biodistribution Blood, Rat 3 [2, 7]: 0.28 % id/g | Biodistribution Blood, Rat 4 [2, 7]: 0.35 % id/g | Biodistribution Kidney, Rat 3 [2, 7]: 2.48 % id/g | Biodistribution Kidney, Rat 4 [2, 7]: 2.54 % id/g | Biodistribution Liver, Rat 3 [2, 7]: 5.30 % id/g | Biodistribution Liver, Rat 4 [2, 7]: 5.14 % id/g | Biodistribution Muscle, Rat 3 [2, 7]: 0.55 % id/g | Biodistribution Muscle, Rat 4 [2, 7]: 0.56 % id/g | Biodistribution Prostate, Rat 3 [2, 7]: 1.13 % id/g | Biodistribution Prostate, Rat 4 [2, 7]: 1.18 % id/g | Biodistribution Blood, Av. [2, 8]: 0.32 % id/g | Biodistribution Kidney, Av. [2, 8]: 2.51 % id/g | Biodistribution Liver, Av. [2, 8]: 5.22 % id/g | Biodistribution Muscle, Av. [2, 8]: 0.55 % id/g | Biodistribution Prostate, Av. [2, 8]: 1.16 % id/g | Biodistribution Blood, Av. [2, 9]: 0.36 % id/g | Biodistribution Blood, Rat 1 [2, 9]: 0.3 % id/g | Biodistribution Blood, Rat 2 [2, 9]: 0.42 % id/g | Biodistribution Kidney, Av. [2, 9]: 2.46 % id/g | Biodistribution Kidney, Rat 1 [2, 9]: 2.24 % id/g | Biodistribution Kidney, Rat 2 [2, 9]: 2.68 % id/g | Biodistribution Liver, Av. [2, 9]: 5.35 % id/g | Biodistribution Liver, Rat 1 [2, 9]: 5.16 % id/g | Biodistribution Liver, Rat 2 [2, 9]: 5.55 % id/g | Biodistribution Muscle, Av. [2, 9]: 0.53 % id/g | Biodistribution Muscle, Rat 1 [2, 9]: 0.48 % id/g | Biodistribution Muscle, Rat 2 [2, 9]: 0.57 % id/g | Biodistribution Prostate, Av. [2, 9]: 1.17 % id/g | Biodistribution Prostate, Rat 1 [2, 9]: 1.22 % id/g | Biodistribution Prostate, Rat 2 [2, 9]: 1.12 % id/g | activity in the bladder [3]: No activity was observed in the bladder
